Converted amounts (≈) assume the structure as drawn.
These compounds were tested on Bacillus anthracis (assay: Antimicrobial activity against Bacillus anthracis assessed as growth inhibition measured as turbidity).
Format: functional
`CCCC1c2ccccc2C=NN1C(=O)/C=C/c1cc(Cc2cnc(N)nc2N)cc(OC(=O)c2ccc(OC)cc2)c1OC` (racemic) showed an MIC of 8 µg/mL (≈ 13.2 µM). `CCCC1c2ccccc2C=NN1C(=O)/C=C/c1cc(Cc2cnc(N)nc2N)cc2c1OCO2` (racemic) gave an MIC of 32 µg/mL (≈ 68 µM). `CCCC1c2ccccc2C=NN1C(=O)/C=C/c1cc(Cc2cnc(N)nc2N)cc(OC(=O)c2ccc([N+](=O)[O-])cc2)c1OC` (racemic) showed an MIC of 8 µg/mL (≈ 12.9 µM). `CCCC1c2ccccc2C=NN1C(=O)/C=C/c1cc(Cc2cnc(N)nc2N)cc(OCC)c1OCC` (racemic) showed an MIC of 4 µg/mL (≈ 7.77 µM). In the case of `CCCC1c2ccccc2C=NN1C(=O)/C=C/c1cc(Cc2cnc(N)nc2N)cc(OC)c1OCC` (racemic), the MIC is reported as 2 µg/mL (≈ 4 µM). Compound `CCOc1cc(Cc2cnc(N)nc2N)cc(/C=C/C(=O)N2N=Cc3ccccc3C2C=C(C)C)c1OCC` (racemic) has an MIC of 1 µg/mL (≈ 1.9 µM). In the case of `CCCC1c2ccccc2C=NN1C(=O)/C=C/c1cc(Cc2cnc(N)nc2N)cc(OCc2ccc(F)cc2)c1OC` (racemic), the MIC is reported as 8 µg/mL (≈ 13.8 µM). Work on `CCCOc1cc(Cc2cnc(N)nc2N)cc(/C=C/C(=O)N2N=Cc3ccccc3C2CCC)c1OC` (racemic) yielded an MIC of 4 µg/mL (≈ 7.77 µM). Work on `CCCC1c2ccccc2C=NN1C(=O)/C=C/c1cc(Cc2cnc(N)nc2N)cc(OC)c1OCc1ccccc1` (racemic) yielded an MIC of 4 µg/mL (≈ 7.11 µM). `CCCC1c2ccccc2C=NN1C(=O)/C=C/c1cc(C(=O)c2cnc(N)nc2N)cc(OC)c1OC` (racemic) was tested, and the MIC was > 128 µg/mL. In the case of `CCCC1c2ccccc2C=NN1C(=O)/C=C/c1cc(Cc2cnc(N)nc2N)cc(OC(=O)c2ccccc2)c1OC` (racemic), the MIC is reported as 4 µg/mL (≈ 6.94 µM). For `CCOc1c(/C=C/C(=O)N2N=Cc3ccccc3C2C=C(C)C)cc(Cc2cnc(N)nc2N)cc1OC` (racemic), the MIC was 0.5 µg/mL (≈ 0.975 µM). With `CCCC1c2ccccc2C=NN1C(=O)/C=C/c1cc(Cc2cnc(N)nc2N)cc(OCc2ccc(C(F)(F)F)cc2)c1OC` (racemic) the MIC was 8 µg/mL (≈ 12.7 µM). With `COc1cc(Cc2cnc(N)nc2N)cc(OC)c1OC` [TRIMETHOPRIM] the MIC was > 2050 µg/mL. For `COc1cc(C(=O)c2cnc(N)nc2N)cc(/C=C/C(=O)N2N=Cc3ccccc3C2C=C(C)C)c1OC` (racemic), the MIC was > 128 µg/mL. `CCCC1c2ccccc2C=NN1C(=O)/C=C/c1cc(Cc2cnc(N)nc2N)cc(OC(=O)c2ccc(OC(F)(F)F)cc2)c1OC` (racemic) was tested, and the MIC was 8 µg/mL (≈ 12.1 µM).

Reference: ChEMBL document CHEMBL3352484, “Modified 2,4-diaminopyrimidine-based dihydrofolate reductase inhibitors as potential drug scaffolds against Bacillus anthracis” (Bioorg Med Chem, 2015)
